Laboratory results from patent US8778688B2, “High-throughput methods for determining pharmacological levels of plasma D-serine” (The Johns Hopkins University, priority 2011, dated 2014).

What was measured:
[1] = tested on: prepulse inhibition deficits; conditions: co-administration with D-serine, ddy mice; similar to 10-fold higher doses of D-serine alone; cited from earlier work
porcine DAAO = molecular target: T1, porcine DAAO (Sus scrofa, UniProt P00371); assay: DAAO enzyme coupled assay (Amplex Red/HRP, resorufin fluorescence); assay type: biochemical; conditions: control experiment, CBIO not removed by SPE; data not shown
T1 construct: purchased Sigma
Method: (§1) D-serine Measurement—An aliquot (50 μL) of the D-serine eluant from the cation exchange SPE was used as the source of D-serine in the DAAO catalyzed reaction. The DAAO assay is an enzyme coupled assay that was adapted from a procedure that has been reported previously (P. E. Brandish, et al. J Biomol Screen 11 (2006) 481-87). Briefly, the reaction is carried out in Tris buffer (pH 8.5, 100 mM) in the presence of flavin adenine dinucleotide (10 μM). The peroxide formed from the oxidation of D-serine in the presence of porcine DAAO (34 units/mg, Sigma) was made to react with horse radish peroxidase (0.01 mg/ml, Sigma) in the presence of Amplex Red (50 μM, Invitrogen) to make resorufin. Fluorescence of resorufin (ex/em 530/590) was monitored in a SpectraMax Gemini XS fluorimeter for 1 h at 5 min intervals. D-serine concentrations were determined by interpolation from the standard curve of fluorescence vs. D-serine concentration.
The eluant containing D-serine was then used as substrate in the DAAO catalyzed reaction. […] The levels of several D-amino acids in mouse serum have been reported previously and they range from not detectable to 6 μM (A. Hashimoto, et al. Neurosci Lett 152 (1993) 33-36); these concentrations would give a low fluorescence background. […] In any case, background fluorescence was determined from control animals every time an experiment was carried out. […]

DAAO [2] = molecular target: T2, DAAO (Mus musculus, UniProt P18894); assay: Plasma D-serine after oral administration of D-serine ± DAAO inhibitors, determined by SPE/DAAO; assay type: in vivo; conditions: CD1 mice; for plasma D-serine curve / exposure to D-serine on co-administration: D-serine 326 μmole/kg po plus inhibitor po (CBIO 180, TPC 160 μmoles/kg)
T2 construct: CD1 mice (6-8 wk old, Sprague Dawley, Harlan) were dosed orally with D-serine (30 mg/kg)±compounds; from tissue; host or cells: living CD1 mice (whole animal; DAAO of liver, kidney, brain)
Method: Plasma was collected at 0.5, 1, 2, 3, and 6 hours after dosage. D-serine was extracted from plasma by SPE and its levels determined by the DAAO reaction. FIG. 2(A) depicts D-serine alone, FIG. 2(B) depicts CBIO alone, D-serine±CBIO and FIG. 2(C) depicts D-serine±TPC. […] Each data point is the average of data from 3 separate mice; error bars correspond to ±S.E.M. D-serine standard curves were constructed for each experiment.
Animals—CD1 mice (6-8 wk old, Sprague Dawley, Harlan) were dosed orally with D-serine (30 mg/kg)±compounds. Animals were sacrificed 0.5, 1, 2, 3 and 6 h after dosing and blood was collected by cardiac puncture bleeds. Plasma was prepared and frozen at −80° C. until use.
(§2) Cation Exchange SPE—D-serine was added to normal mouse plasma at different concentrations to generate a standard curve. Plasma (50 μL) containing D-serine or plasma from D-serine treated animals was diluted in 200 μL 0.03 N HCl (pH 1.5). […] Acidified samples were then added to a cation exchange resin (BioRad AG 50W-X4, 200 μL resin equilibrated with 0.03 N HCl) in deep well spin plates (Harvard Apparatus). Minicolumns were centrifuged for 2 min at 200×g. The resin was washed twice with 250 μL 0.03 N HCl and 3 times with 250 μL 100 mM Tris, pH 8.5. D-serine was eluted with 2 times 250 μL 100 mM Tris, pH 13.
as §1, with “The DAAO assay is an enzyme coupled assay that was adapted from a procedure that has been reported previously (P. E. Brandish, et al. J Biomol Screen 11 (2006) 481-87).” left out, “concentration. […]” for “concentration.”

DAAO [3] = molecular target: T3, DAAO (Rattus norvegicus, UniProt O35078); conditions: oral co-administration with D-serine, rats; cited from earlier work
T3 construct: host or cells: living rats (whole animal)

[4] = tested on: N-methyl-D-aspartate (NMDA) receptor; conditions: multiple clinical studies; high doses (2 g per day po); cited from earlier work
[5] = cited from earlier work
[6] = Plasma D-serine time profile after oral D-serine, determined by SPE/DAAO; assay type: in vivo, CD1 mice; conditions: D-serine 326 μmoles/kg po
Method: […] Animals were sacrificed 0.5, 1, 2, 3 and 6 h after dosing and blood was collected by cardiac puncture bleeds. Plasma was prepared and frozen at −80° C. until use.
as §2
D-serine Measurement—An aliquot (50 μL) of the D-serine eluant from the cation exchange SPE was used as the source of D-serine in the DAAO catalyzed reaction. The DAAO assay is an enzyme coupled assay that was adapted from a procedure that has been reported previously (P. E. Brandish, et al. J Biomol Screen 11 (2006) 481-87). […] Fluorescence of resorufin (ex/em 530/590) was monitored in a SpectraMax Gemini XS fluorimeter for 1 h at 5 min intervals. D-serine concentrations were determined by interpolation from the standard curve of fluorescence vs. D-serine concentration. […]

T2 sequence (P18894 whole entry): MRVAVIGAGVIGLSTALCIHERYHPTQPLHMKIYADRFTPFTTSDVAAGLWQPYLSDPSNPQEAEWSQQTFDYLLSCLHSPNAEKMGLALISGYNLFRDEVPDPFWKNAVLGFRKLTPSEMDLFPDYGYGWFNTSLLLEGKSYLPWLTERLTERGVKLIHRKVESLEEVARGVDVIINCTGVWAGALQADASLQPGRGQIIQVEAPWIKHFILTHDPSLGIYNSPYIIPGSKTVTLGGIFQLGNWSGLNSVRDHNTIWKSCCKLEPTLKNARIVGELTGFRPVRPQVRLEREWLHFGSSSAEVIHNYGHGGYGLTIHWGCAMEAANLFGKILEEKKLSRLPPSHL
T3 sequence (O35078 whole entry): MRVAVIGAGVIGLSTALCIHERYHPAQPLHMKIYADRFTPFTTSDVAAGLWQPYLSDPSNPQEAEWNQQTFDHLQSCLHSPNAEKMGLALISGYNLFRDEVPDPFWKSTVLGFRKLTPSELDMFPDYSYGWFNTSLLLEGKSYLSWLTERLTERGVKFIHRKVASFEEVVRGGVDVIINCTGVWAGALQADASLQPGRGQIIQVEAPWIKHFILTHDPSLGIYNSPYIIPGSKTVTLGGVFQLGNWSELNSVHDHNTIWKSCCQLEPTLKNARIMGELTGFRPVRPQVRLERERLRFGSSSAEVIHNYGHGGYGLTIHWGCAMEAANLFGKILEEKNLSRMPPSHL
T1 sequence (P00371 whole entry): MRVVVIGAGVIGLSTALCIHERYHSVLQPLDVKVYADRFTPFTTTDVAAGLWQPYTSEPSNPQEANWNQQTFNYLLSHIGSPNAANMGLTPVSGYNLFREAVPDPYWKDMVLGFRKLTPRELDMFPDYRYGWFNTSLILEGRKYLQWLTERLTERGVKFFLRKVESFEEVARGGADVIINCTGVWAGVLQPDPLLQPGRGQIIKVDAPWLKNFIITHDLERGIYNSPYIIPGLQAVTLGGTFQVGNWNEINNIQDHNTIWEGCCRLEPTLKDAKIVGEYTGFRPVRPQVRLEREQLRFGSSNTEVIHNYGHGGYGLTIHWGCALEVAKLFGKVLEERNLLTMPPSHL

## Oc1noc2ccc(Cl)cc12 [CBIO, 5-chloro-benzo[d]isoxazol-3-ol]
[1]
  prepulse inhibition deficits: normalized
Porcine DAAO
  oxidation of D-serine by DAAO: completely inhibited
DAAO [2]; CBIO alone
  plasma D-serine levels when inhibitor administered in the absence of D-serine: the same as background levels
DAAO [2]
  plasma D-serine curve / exposure to D-serine on co-administration: overall curve was shifted to the right
DAAO [3]
  brain levels of D-serine compared to D-serine alone: significantly enhanced
  plasma levels of D-serine compared to D-serine alone: significantly enhanced

## N[C@H](CO)C(=O)O [D-serine]
[4]
  treating the positive, negative and cognitive deficits of schizophrenia: effective
[5]
  pKa of the carboxylic acid: 2.1
[6]; first time point, Tmax likely earlier
  time point showing the highest D-serine plasma concentration: 0.5 h
[6]; mouse, CD1 mice, plasma, read-out: estimated half-life of D-serine in mouse plasma
  half-life: ~50 min

## O=C(O)c1cc2sccc2[nH]1 [TPC, 4H-thieno[3,2-b]pyrrole-5-carboxylic acid]
DAAO [2]
  plasma D-serine curve / exposure to D-serine on co-administration: shifted the exposure of D-serine in plasma
